Data published in US20100184783A1, “COMBINATION FOR USE IN THE TREATMENT OF INFLAMMATORY ATHEROSCLEROSIS COMPRISING A MAST CELL INHIBITOR AND A PPAR GAMMA AGONIST” (priority 2007, published 2010).

Test system: human macrophage cell-line MonoMac-6 (MM6)
Experiment: Inhibition of macrophage proliferation (MM6 cell proliferation, WST-1 reagent)
Assay type: cell-based
Conditions: 46 hours, mean, n=5
Method: Cells from the human macrophage cell-line MonoMac-6 (MM6) (Ziegler-Heitbrock et al, Int. J. Cancer, 41, 456 (1988)) were cultured (37° C./5% CO2) in RPMI-1640 medium supplemented with 1 mM sodium pyruvate, 1×nonessential amino acids, 10 μg/mL insulin, 1 mM oxalacetic acid, 100 units/mL penicillin, 100 μg/mL streptomycin and 10% (v/v) fetal bovine serum. At the start of the experiment, MM6 cells were seeded in 96-well plates at a density of 1>10^5 cells/mL (100 μL per well). Proliferation of the MM6 cells was measured using the Cell Proliferation Reagent WST-1 (Roche Diagnostics Scandinavia AB, Bromma, Sweden) or by cell counting using a microscope. The WST-1 reagent is designed to be used for spectrophotometric quantification of e.g. cell growth in proliferation assays and was used according to the manufacturers' instructions. The wavelength for measuring absorbance was 450 nm. Stock solutions of pemirolast (potassium salt; purchased from American Custom Chemicals Corporation, San Diego, USA) were made in sterile saline. Pioglitazone (HCl salt; purchased from AK Scientific, Inc., Mountain View, Calif., USA) was dissolved in DMSO and then diluted in sterile saline leading to final DMSO concentrations in the MM6 incubations of 0.003%, 0.01% and 0.03% for the final pioglitazone concentrations of 0.1 μM, 0.3 μM and 1 μM, respectively. The effects of treatment with pioglitazone (alone and in combination) on MM6 proliferation were compared with control treatments containing DMSO at concentrations corresponding to the DMSO concentrations used in the different respective pioglitazone treatments. Untreated MM6 cells increased from 1×10^5 cells/mL at the start of the experiment to 1.4×10^5±0.06×10^5 cells/mL and 2.3×10^5±0.10×10^5 cells/mL after 24 and 48 hours, respectively (mean values±sem, n=4 for each of the three time-points). Pemirolast and/or pioglitazone were added at the start of the experiments and 46 hours later the effects of the drugs on MM6 cell proliferation were studied using the WST-1 reagent described above. The WST-1 reagent was added at 44 hours after start of the experiments and the average absorbance of untreated control cells exposed to the WST-1 reagent was 0.89 (n=5).

SMILES | MM6 proliferation, of the proliferation of untreated control cells (10 μM pemirolast) | MM6 proliferation, of the proliferation of untreated control cells (30 μM pemirolast) | MM6 proliferation, of the proliferation of untreated control cells (100 μM pemirolast) | MM6 proliferation, of the proliferation of untreated control cells (0.1 μM pioglitazone, control with DMSO) | MM6 proliferation, of the proliferation of untreated control cells (0.3 μM pioglitazone, control with DMSO) | MM6 proliferation, of the proliferation of untreated control cells (1 μM pioglitazone, control with DMSO)
Cc1cccn2c(=O)c(-c3nnn[nH]3)cnc12 [pemirolast] | 101% | 124% | 102% |  |  | 
CCc1ccc(CCOc2ccc(CC3SC(=O)NC3=O)cc2)nc1 (stereo not drawn) [pioglitazone] |  |  |  | 91% | 96% | 88%
